The numbers were not newly measured in patent US20250331549A1, “AEROSOL-GENERATING ARTICLE WITH AVERSIVE AGENT” (PHILIP MORRIS PRODUCTS S.A., priority 2022, published 2025), which cites them from elsewhere.

Where a name gives a salt, the structure may show the parent alone. Read-outs that look alike come from different tables or passages of the source. Some results are limits rather than exact numbers.

The mark [1] stands for this setting: reciprocal of the dilution that still has a bitter taste, known bittering agents, Table 1.
Where [2] appears, read: quinine hydrochloride value is the set reference, denatonium benzoate value is estimated.

As for `CC1=C[C@H]2[C@H]3[C@H](C(C)=C4[C@H]5OC(=O)[C@@H](C)[C@@H]5CC[C@](C)(O)[C@@H]43)[C@@]13[C@@H]2[C@@](C)(O)CC[C@H]1[C@H](C)C(=O)O[C@@H]13` [Absinthin, absinthin], under setting [1], the Bitterness value is recorded as 3,000,000.
As to `C[C@@]12C[C@@H](c3ccoc3)OC(=O)[C@@H]1CC[C@]1(C)[C@H]2[C@@H]2C=C[C@@]1(O)C(=O)O2` [Columbin, columbin], under setting [1], the Bitterness value was 60,000,000.
As to `CC[N+](CC)(CC(=O)Nc1c(C)cccc1C)Cc1ccccc1` [Denatonium benzoate, denatonium benzoate], the Bitterness value result runs as follows: under setting [2], “over 100,000,000”; under setting [1], >100,000,000.
On to `COC1=C[C@@H](C)[C@@H]2C[C@H]3OC(=O)C[C@H]4C(C)=C(OC)C(=O)[C@H]([C@@]2(C)C1=O)[C@@]34C` [Quassin, quassin], for which, under setting [1], the Bitterness value was 13,000,000.
For `C=C[C@H]1C[N@@]2CC[C@H]1C[C@H]2[C@H](O)c1ccnc2ccc(OC)cc12` [Quinine hydrochloride, quinine hydrochloride, reference compound], the Bitterness value runs as follows: under setting [2], 200,000; under setting [1], 200,000.
On to amarogentin, for which, under setting [1], the Bitterness value was 58,000,000.
